# Data from patent publication US11337988B2, “Use of ouabain antagonists to inhibit viral infection” (priority 2018, dated 2022).
# Tests used:
# EGFR Tyr845 = experiment: EGFR phosphorylation array (pTyr845) in A549 cells; settings: without RSV infection
# Experimental: A549 cells were treated as indicated (either siRNA knock down for 48 h or pre-treatment with the chemical compounds ouabain [25 n1\4], PST2238 [40 μM] or Src Inhibitor-I (SrcI-I) [6.25 μM] and PP2 [12.5 μM] for 5 h pre-inoculation). Cells were serum starved overnight, before they were inoculated with wt RSV (MOI=5 PFU/cell) and incubated at 37° C. Cells were lysed 5 h p.i. and subjected to a phospho-specific EGFR array (RayBiotech, Inc.). (FIG. 8A) Representative array spots of pTyr845 EGFR and its corresponding pan EGFR for each treatment are shown. […] (FIG. 8D) As control, PST2238 or Ouabain pretreated A549 cells were stimulated with EGF (100 ng/ml) for 45 min and the pTyr845 EGFR signal was quantified. The statistical significance of the differences were determined by one-way analysis of variance with Dunnett multiple-comparison test and the significance p-values are indicated for each comparison. […]
# Quantification of EGFR phosphorylation. […] The protein concentration of the lysate was quantified by bicinchoninic acid (BCA) assay (Thermo Fisher Scientific) and lysate containing 150 μg total protein was used for each array. […] The light emission of the array spots was detected by exposure to X-ray films. The films were scanned and the intensity values of each spot were quantified by ImageQuant TL (Array Version 8.1, GE Healthcare). […]
# RSV-GFP = RSV-GFP infection of A549 cells, GFP intensity of total well by ELISA reader; settings: discussion statement
# Experimental: Quantification of RSV infection by viral expressed GFP. For the evaluation of RSV infection, RSV-GFP, a recombinantly derived virus that expresses enhanced green fluorescent protein (eGFP) from an additional gene inserted between the P and M genes, was used. SiRNA transfected or pre-treated A549 cells, seeded in a 12-well plate, were inoculated with an MOI of 1.0 PFU/cell. Inoculum was adsorbed for 2 h by incubating on a rocking platform at 37° C., after which the inoculum was washed off and replaced with fresh media. The infected cells were incubated for 17 h at 37° C. and 5% CO2 and the infectivity was evaluated by quantifying GFP either by ELISA reader or flow cytometry. For the ELISA reader quantification, the GFP intensity of the infected monolayer was quantified by an area scan (average GFP intensity of 29 individual measurements per well) on a Synergy 2 ELISA reader (BioTek). […] For the flow cytometry based GFP quantification, the cells were detached with 1 mM EDTA, stained with LIVE/DEAD fixable dead cell staining kit (Life Technologies), and fixed with 4% paraformaldehyde (PFA, Electron Microscopy Science, PA). The GFP intensities of single, live cells were analyzed on a Canto II flow cytometer (BD Biosciences, Franklin Lakes, N.J.).
# RSV = experiment: Preliminary studies of RSV infection with an inhibitor of clathrin-mediated endocytosis; format: cell-based, human respiratory syncytial virus (RSV); settings: non-toxic concentrations
# ATP1A1 = target: T1, ATP1A1 (Homo sapiens, UniProt P05023); experiment: RSV-induced ATP1A1 clustering in A549 cells by confocal immunofluorescence; format: cell-based; settings: A549 treated overnight, RSV MOI=5 PFU/cell, 5 hours
# T1 construct: ATP1A1 being expressed ubiquitously and being the predominant isoform expressed in A549 cells; endogenous in cells; host or cells: A549 cells (ATCC CCL-185)
# Excerpt: Whether PST2238 treatment had any effect on the clustering of ATP1A1 and RSV proteins was also investigated.
# Immunofluorescence microscopy.
# [1] = adducin- and ouabain-induced forms of hypertension; normal systolic blood pressure of healthy individuals not lowered; cited from earlier work
# [2] = including 5 mg twice a day for a week and 0.5 mg per day for three months; cited from earlier work
smiles,measurement,setting,value
"C[C@@H]1O[C@@H](O[C@H]2C[C@@H](O)[C@]3(CO)[C@@H]4[C@@H](CC[C@]3(O)C2)[C@@]2(O)CCC(C3=CC(=O)OC3)[C@@]2(C)C[C@@H]4O)[C@H](O)[C@H](O)[C@H]1O (stereo partly drawn) [ouabain, (1β,3β,5β,11α)-3-[(6-Deoxy-α-L-mannopyranosyl)oxy]-1,5,11,14,19-pentahydroxycard-20(22)-enolide]",detection of phosphorylation of EGFR Tyr845 following treatment with compound alone,EGFR Tyr845,not following treatment with ouabain
same,concentrations at which inhibition of RSV infection was achieved,RSV-GFP,sub-nanomolar
CN(C)CCCN1c2ccccc2Sc2ccc(Cl)cc21 [chlorpromazine],effects on RSV infection,RSV,did not detect effects
"C[C@]12CC[C@H](O)C[C@H]1CC[C@@H]1[C@@H]2CC[C@]2(C)[C@@](O)(c3ccoc3)CC[C@]12O [PST2238, (3β,5β,14β)-21,23-Epoxy-24-norchola-20,22-diene-3,14,17-triol]",effect on the clustering of ATP1A1,ATP1A1,no apparent effect
same,effect on blood pressure,[1],lowers the blood pressure
same,toxicity in human and animal models,[2],non-toxic
